Laboratory results reported in article PMC3663898 (Antiviral research, 2013).
In brackets after ≈: the same amount, converted by molar mass. Where two headings read alike, the source gives them in different places.

Key:
in vitro [1] = settings: bovine
[2] = test system: CYP1A2, CYP2C9, CYP2C19, CYP2D6 and CYP3A4; experiment: in vitro; settings: human
in vitro [3] = settings: human, Caco-2
[4] = male, Sprague-Dawley, rat, in vivo
in vitro [5] = settings: human
TCRV = experiment: microbe, parasite or virus in culture; assay type: cell-based, Tacaribe virus (11573 strain); settings: Mammarenavirus tacaribeense, Huh7.5, 48 h; for EC50: read-out: TARV EC50; for EC90: read-out: TARV EC90
in vivo = settings: male, Sprague-Dawley, rat; for C0 / Vd / clearance / half-life: iv
DENV = experiment: microbe, parasite or virus in culture; assay type: cell-based, DENV (serotype 2, New Guinea C); settings: Dengue virus, BHK, 48 h; for EC50: read-out: DENV EC50; for EC90: read-out: DENV EC90
[6] = rat, in vivo; for rats with diarrhea: Sprague-Dawley, po, 200 mg/kg
in vitro [7] = settings: hamster

SMILES | CC50 (in vitro [1]) [µM] | IC50 [2] [µM] | solubility (physchem; pH 4, aqueous buffer) [µM] | solubility (physchem; pH 7.4, aqueous buffer) [µM] | efflux ratio (in vitro [3]) | AUC IV ([4]; 5 mg/kg) | AUC PO ([4]; 25 mg/kg) | CC50 (in vitro [5]) [µM] | EC50 (TCRV) [µM] | EC90 (TCRV) [µM] | C0 (in vivo; 5 mg/kg) [ng/mL] | Vd (in vivo; 5 mg/kg) [L/kg] | clearance (in vivo; 5 mg/kg) [mL/min/kg] | half-life (in vivo; 5 mg/kg) [h] | Tmax (in vivo; po, 25 mg/kg) [h] | EC50 (DENV) [µM] | EC90 (DENV) [µM] | rats with diarrhea [6] [%] | adverse event at lower doses [6] | CC50 (in vitro [7]) [µM] | also measured
CC(C)(C)C(=O)N(CCCCCCN1C[C@H](O)[C@@H](O)[C@H](O)[C@H]1CO)C1CCCCC1 [IHVR17028, N-cyclohexyl-N-(6-((2R,3R,4R,5S)-3,4,5-trihydroxy-2-(hydroxymethyl)piperidin-1-yl)hexyl)pivalamide] | > 500 | > 10 | 299 (≈ 128 µg/mL) | 311 (≈ 133 µg/mL) | 31.7 | 1540/903/ND/ND μg*h/mL | 1540/903/ND/ND μg*h/mL | > 500 | 0.26 ± 0.08 | 26.7 ± 20.9 | 1660 | 3 | 55.7 | 0.88 | 1.56 | 0.3 ± 0.03 | 1.7 ± 0.8 | 100 | sign of GI stress, such as anogenital staining or soft stool | > 500 | Cmax (in vivo; po, 25 mg/kg): 180 ng/mL
CC(C)(C)NC(=O)N(CCCCCCN1C[C@H](O)[C@@H](O)[C@H](O)[C@H]1CO)C1CCCCC1 [IHVR19029, 3-(tert-butyl)-1-cyclohexyl-1-(6-((2R,3R,4R,5S)-3,4,5-trihydroxy-2-(hydroxymethyl)piperidin-1-yl)hexyl)urea] | > 500 | > 10 | 309 (≈ 137 µg/mL) | 303 (≈ 134 µg/mL) | 34.2 | 1383/945/1839/983 μg*h/mL |  | > 500 | 0.74 ± 0.3 | 52.5 ± 38.9 | 1790 | 3 | 58.2 | 1.2 |  | 1.25 ± 1.1 | 22.5 ± 10.6 |  |  | > 500 | mortality or clinical signs (Balb/c mice, single dose IP or IM up to 200mg/kg, 9-day observation): No mortality or clinical signs were observed; weight loss and GI alterations (mouse, in vivo): No significant weight loss and GI alterations; AUC IM [4]: 1383/945/1839/983 μg*h/mL; F PO [4]: 4.6/71/133%; AUC IP ([4]; ip, 5 mg/kg): 1383/945/1839/983 μg*h/mL; AUC PO ([4]; 75 mg/kg): 1383/945/1839/983 μg*h/mL; Tmax (in vivo): 0.167 h; Cmax (in vivo; im, 5 mg/kg): 1230 ng/mL; Tmax (in vivo; im, 5 mg/kg): 0.1 h; Cmax (in vivo; ip, 5 mg/kg): 1330 ng/mL; Tmax (in vivo; ip, 5 mg/kg): 0.17 h; Cmax (in vivo; po, 75 mg/kg): 260 ng/mL; Tmax (in vivo; po, 75 mg/kg): 2.1 h
OC[C@@H]1[C@@H](O)[C@H](O)[C@@H](O)CN1CCCCCCOc1cc(F)ccc1F [IHVR11029, (2R,3R,4R,5S)-1-(6-(2,5-difluorophenoxy)hexyl)-2-(hydroxymethyl)piperidine-3,4,5-triol] | > 500 | > 10 |  |  |  | 1990/9180/ND/ND μg*h/mL | 1990/9180/ND/ND μg*h/mL | > 500 | 3.3 ± 2.7 | 69 ± 37.7 | 1620 |  | 42.3 |  | 4.17 | 0.75 ± 0.06 | 6.3 ± 3.5 | 50 | sign of GI stress, such as anogenital staining or soft stool | > 500 | F PO [4]: 92/ND/ND %
